Laboratory results published in article PMC3849647, “Pharmacokinetics and biodistribution of the cyclin-dependent kinase inhibitor -CR8- in mice” (BMC Pharmacology & Toxicology, 2013).
“And” between values parts separate entries of the source, which are not always exact repeats. Equal values may be shown once. Read-outs that look alike come from different tables or passages of the source.

How the values were obtained:
[1] = Pharmacokinetics of CR8 in mouse plasma after oral and i.v. administration (HPLC-UV); format: in vivo, mice
Method: 70 μl plasma was added to 140 μl methanol and vortexed for 15 sec. Samples were centrifuged at 10000 g for 10 minutes, and 50 μl from the supernatant were injected into the HPLC system.
Female BALB/c mice 8–10 weeks old and weighing 18–21 g were obtained from Scanbur, Sollentuna, Sweden. The mice were allowed to acclimatize to their surroundings for one week before starting treatment. The mice were fed pelleted food and water ad libitum.
CR8 was dissolved in DMSO: 50 mM HCl (10:90 v/v). The first group of mice received i.v. doses of CR8 (50 mg/kg body weight), the second received oral doses of CR8 (100 mg/kg body weight) and three control mice received vehicle alone. Three mice were sacrificed at each time point and blood samples were collected by cardiac puncture into heparinized tubes at 10, 20, 30, 60 min, 2, 4, 6, 8 h post administration. Blood samples were centrifuged immediately after collection at 3000 g for 5 min at 4°C and the plasma was prepared as mentioned previously. Supernatants were collected and all samples were frozen at −20°C directly after preparation until further analysis by HPLC. Other organs including liver, spleen, kidneys, brain, adipose tissue and lungs were removed, washed and snap frozen immediately in liquid nitrogen. Bone marrow was flushed from both femurs and mononuclear cells were counted and frozen. The samples were stored at −20°C to avoid any metabolic activity.
Parameters including distribution volume of the central compartment, elimination rate constant, plasma maximum concentration and micro constants were estimated. Clearance (Cl) and distribution volume at the steady state were calculated from the primary parameters. The plasma concentration versus time curves (AUC) were calculated from the model derived parameters, and the elimination half-lives were calculated from the slope of the terminal elimination phase. Bone marrow data were derived after adjustment of concentrations to 10^9 cells (= approx. 1 g of tissue). The pharmacokinetic modeling was performed using WinNonlin version 5.2 (Pharsight, USA).
Oral bioavailability (F) defined as the fraction of the oral administered dose of CR8 that reaches the systemic circulation was calculated according to the following formula:
F=AUCpo∗doseIV/AUCIV∗dosepo

[2] = Biodistribution of CR8 to mouse organs after oral administration; format: in vivo, mice; set-up: V2/F: unit not given here; conditions: for AUC / Beta-HL / V2/F / Cmax: single oral 100 mg/kg; for Tissue/plasma exposure ratio (% AUC organ vs. AUC plasma) / Kp: oral 100 mg/kg, 100 mg/kg; for Kp / Cmax: female, BALB/c, mouse; for Kp: po
Method: CR8 was dissolved in DMSO: 50 mM HCl (10:90 v/v). The first group of mice received i.v. doses of CR8 (50 mg/kg body weight), the second received oral doses of CR8 (100 mg/kg body weight) and three control mice received vehicle alone. […] Supernatants were collected and all samples were frozen at −20°C directly after preparation until further analysis by HPLC. Other organs including liver, spleen, kidneys, brain, adipose tissue and lungs were removed, washed and snap frozen immediately in liquid nitrogen. Bone marrow was flushed from both femurs and mononuclear cells were counted and frozen. The samples were stored at −20°C to avoid any metabolic activity. […] Femurs were removed and cleaned; bone marrow was flushed with 0.3 ml of PBS and single cell suspension was prepared by gentle flushing through needle and syringe. Nucleated cells were counted using Türk solution and bone marrow was stored at −20°C until assay. Parameters including distribution volume of the central compartment, elimination rate constant, plasma maximum concentration and micro constants were estimated. Clearance (Cl) and distribution volume at the steady state were calculated from the primary parameters. The plasma concentration versus time curves (AUC) were calculated from the model derived parameters, and the elimination half-lives were calculated from the slope of the terminal elimination phase. Bone marrow data were derived after adjustment of concentrations to 10^9 cells (= approx. 1 g of tissue). The pharmacokinetic modeling was performed using WinNonlin version 5.2 (Pharsight, USA).

[3] = Stability of CR8 in plasma quality control samples and solution; format: physicochemical, human
Method: Four quality control samples at concentrations of 0.75, 1.5, 3.5 and 7.0 μg/ml were also prepared in triplicate and stored at room temperature, +4°C and −20°C for stability testing.
The stability of CR8 was determined in plasma samples using concentrations of 0.75, 1.5, 3.5 and 7.0 μg/ml (in triplicate). The samples were kept at room temperature, +4°C and −20°C and analyzed twice weekly for 2 months. Peak areas of all the samples were compared to peak areas obtained at time zero.

[4] = test system: tumor cell lines; conditions: cited from earlier work
[5] = test system: CDK5/p25; set-up: method as in PMID 18574471; conditions: cited from earlier work
[6] = biological target: casein kinase 1 (CK1); set-up: method as in PMID 18574471; conditions: cited from earlier work
[7] = test system: CDK; set-up: method as in PMID 18574471; conditions: in-vitro; cited from earlier work
[8] = given i.v. at the same dosage; cited from earlier work
[9] = bone marrow vs plasma; cited from earlier work

CC[C@H](CO)Nc1nc(NCc2ccc(-c3ccccn3)cc2)c2ncn(C(C)C)c2n1 [CR8]
Beta-HL ([1]; Plasma, single oral 100 mg/kg): 3.10 h | V2/F ([1]; Plasma, single oral 100 mg/kg): 21.0 | half-life ([1]; female, BALB/c, mouse, plasma, female BALB/c mice, read-out: Half-life (converted)): ~3 h | AUC ([1]; female, BALB/c, mouse, plasma, iv, 50 mg/kg, plasma, 50 mg/kg intravenously, read-out: AUC): ~45000 ng·h/mL | Cmax ([1]; female, BALB/c, mouse, plasma, iv, 50 mg/kg, plasma, i.v. bolus 50 mg/kg, estimated, read-out: Cmax (maximum reached concentration)): > 100000 ng/mL | AUC ([1]; female, BALB/c, mouse, plasma, iv, 50 mg/kg, plasma, i.v. bolus 50 mg/kg, mice, read-out: AUC (area under time plasma concentration curve)): 44400 ± 3300 ng·h/mL | half-life ([1]; female, BALB/c, mouse, plasma, iv, 50 mg/kg, plasma, i.v. bolus 50 mg/kg, read-out: Tα (first elimination half-life) (converted)): 0.11 ± 0.01 h | half-life ([1]; female, BALB/c, mouse, plasma, iv, 50 mg/kg, plasma, i.v. bolus 50 mg/kg, read-out: Tβ (terminal elimination half-life) (converted)): 2.95 ± 0.11 h | clearance ([1]; female, BALB/c, mouse, plasma, iv, i.v. bolus 50 mg/kg, read-out: CL (clearance) (converted)): 0.383 mL/min | Vd ([1]; female, BALB/c, mouse, plasma, iv, i.v. bolus 50 mg/kg, read-out: Vss (distribution volume at steady state)): 0.044 ± 0.004 L | half-life ([1]; female, BALB/c, mouse, plasma, mice, read-out: Elimination half-life (converted)): ~3 h | bioavailability ([1]; female, BALB/c, mouse, plasma, oral, 100 mg/kg, oral 100 mg/kg vs i.v. 50 mg/kg, F=AUCpo*doseIV/AUCIV*dosepo): ~100% | Tmax ([1]; female, BALB/c, mouse, plasma, oral, 100 mg/kg, mice, read-out: Time of maximum concentrations (converted)): 0.5 h | AUC ([1]; female, BALB/c, mouse, plasma, po, 100 mg/kg, Plasma, single oral 100 mg/kg, read-out: AUC): 96000 ng·h/mL | Cmax ([1]; female, BALB/c, mouse, plasma, po, 100 mg/kg, Plasma, single oral 100 mg/kg, read-out: Cmax): 34300 ng/mL | AUC ([1]; female, BALB/c, mouse, plasma, po, 100 mg/kg, plasma, 100 mg/kg orally, read-out: AUC): ~100000 ng·h/mL | AUC ([1]; female, BALB/c, mouse, plasma, po, 100 mg/kg, plasma, single oral 100 mg/kg, mice, read-out: AUC (area under time plasma concentration curve)): 96300 ± 10500 ng·h/mL | Cmax ([1]; female, BALB/c, mouse, plasma, po, 100 mg/kg, plasma, single oral 100 mg/kg, read-out: Cmax (maximum reached concentration)): 34300 ± 1940 ng/mL | half-life ([1]; female, BALB/c, mouse, plasma, po, 100 mg/kg, plasma, single oral 100 mg/kg, read-out: Tα (first elimination half-life) (converted)): 1.3 ± 0.43 h | half-life ([1]; female, BALB/c, mouse, plasma, po, 100 mg/kg, plasma, single oral 100 mg/kg, read-out: Tβ (terminal elimination half-life) (converted)): 3.1 ± 0.35 h | Cmax after i.v. compared to oral administration ([1]; i.v. 50 mg/kg vs oral 100 mg/kg): 4 fold | CL (clearance) ([1]; single oral 100 mg/kg): 21 ± 2 mL/h | Vss (distribution volume at steady state) ([1]; single oral 100 mg/kg): 21 ± 3 mL | AUC ([2]; Adipose tissue): 181 µg·h/g | Beta-HL ([2]; Adipose tissue): 2.40 h | V2/F ([2]; Adipose tissue): 38.2 | AUC ([2]; Bone marrow (10^9 cells = approx. 1 g)): 34 µg·h/g | Beta-HL ([2]; Bone marrow): 1.98 h | V2/F ([2]; Bone marrow): 84.5 | AUC ([2]; Brain): 14 µg·h/g | Beta-HL ([2]; Brain): 2.12 h | V2/F ([2]; Brain): 447.5 | AUC ([2]; Kidney): 145 µg·h/g | Beta-HL ([2]; Kidney): 2.62 h | V2/F ([2]; Kidney): 52.2 | AUC ([2]; Liver): 197 µg·h/g | Beta-HL ([2]; Liver): 2.43 h | V2/F ([2]; Liver): 35.8 | AUC ([2]; Lung): 77 µg·h/g | Beta-HL ([2]; Lung): 2.58 h | V2/F ([2]; Lung): 96.7 | AUC ([2]; Spleen): 40 µg·h/g | Beta-HL ([2]; Spleen): 2.60 h | V2/F ([2]; Spleen): 74.5 | Tissue/plasma exposure ratio (% AUC organ vs. AUC plasma) ([2]; adipose tissue): 180% | Kp ([2]; adipose tissue, adipose tissue, read-out: Tissue/plasma exposure ratio (% AUC organ vs. AUC plasma)): 1.88 | Kp ([2]; bone marrow, bone marrow, concentrations normalized to tissue weight/g, read-out: Tissue/plasma exposure ratio (% AUC organ vs. AUC plasma)): 0.3 | Kp ([2]; brain, brain, read-out: Tissue/plasma exposure ratio (% AUC organ vs. AUC plasma; concentration in brain vs plasma)): 0.15 | Kp ([2]; kidney, kidney, read-out: Tissue/plasma exposure ratio (% AUC organ vs. AUC plasma)): 1.5 | Kp ([2]; liver, liver, read-out: Tissue/plasma exposure ratio (% AUC organ vs. AUC plasma)): 2.05 | Kp ([2]; lung, lung, read-out: Tissue/plasma exposure ratio): 0.8 | Kp ([2]; spleen, spleen, read-out: Tissue/plasma exposure ratio): 0.5 | Cmax ([2]; Adipose tissue): 48700 ng/g | Cmax ([2]; Bone marrow): 10600 ng/g | Cmax ([2]; Brain): 4100 ng/g | Cmax ([2]; Kidney): 36000 ng/g | Cmax ([2]; Liver): 52400 ng/g | Cmax ([2]; Lung): 19300 ng/g | Cmax ([2]; Spleen): 27700 ng/g | Tissue/plasma exposure ratio (% AUC organ vs. AUC plasma) ([2]; liver): 200% | Stability (concentration of QC samples remaining vs time zero) ([3]; plasma QC samples, 2 months at room temperature, +4°C or −20°C): approximately 97 ± 3.5% | Time for which stable ([3]; room temperature, in both solution and plasma): 2 months | IC50 ([4]; different cell lines, read-out: Optimal concentration for pharmacological effect in-vitro in different cell lines (reported average IC50)): ~700 nM and 700 nM | Anti-tumor IC50 values found in-vitro ([4]; in-vitro, reference not given): 0.3 µg/mL | IC50 [5]: 120 nM | IC50 [6]: 610 nM | Potency as CDK inhibitor relative to roscovitine [7]: 2–4 fold

CC[C@H](CO)Nc1nc(NCc2ccccc2)c2ncn(C(C)C)c2n1 [roscovitine]
Reported half-life [8]: approximately 1 hour | Distribution to bone marrow [9]: 1.5%
